Measured values taken from US20220193066A1, “QUINOLINE DERIVATIVE USED FOR COMBINATION TREATMENT OF SMALL CELL LUNG CANCER” (CHIA TAI TIANQING PHARMACEUTICAL GROUP CO., LTD., priority 2019, published 2022).

Assays:
Assay type in all cases: in vivo, human
[1] = system: small cell lung cancer (including ED-SCLC and LD-SCLC); test: Clinical trial of EP or EC regimen (etoposide+cisplatin/carboplatin)+anlotinib in small cell lung cancer patients (Example 1)
Description: Patients who were pathologically diagnosed with small cell lung cancer (including ED-SCLC and LD-SCLC) with measurable lesions were divided into the following groups: two combination administration groups adopting a combination of either EP or EC regimen (etoposide+cisplatin/carboplatin)+anlotinib, and a control group adopting either EP or EC alone (etoposide+cisplatin/carboplatin). The administration regimens are detailed below.
In the combination administration group, patients received etoposide: 100 mg/m^2, i.v., for 120 min, administered at d1-3 of each 21-day dosing cycle; cisplatin: 75 mg/m^2, or carboplatin: AUC 5, i.v., for 120 min, administered at d1 of each 21-day dosing cycle; anlotinib, 12 mg/day, administered orally on an empty stomach in the morning at d1-14 of each 21-day dosing cycle. After 4-6 dosing cycles of combination treatment, anlotinib was used for maintenance treatment: 12 mg/day, administered orally on an empty stomach in the morning at d1-14 of each 21-day dosing cycle until progressive disease.
In the control group, patients received etoposide: 100 mg/m^2, i.v., for 120 min, administered at d1-3 of each 21-day dosing cycle; cisplatin: 75 mg/m^2 or carboplatin: AUC 5, i.v., for 120 min, administered at d1 of each 21-day dosing cycle.
The observation indexes are as follows: primary endpoint: progression-free survival (PFS); secondary endpoint: objective response rate (ORR), overall survival (OS), disease control rate (DCR), safety, and tolerability.
The clinical trial was implemented, and 31 patients were enrolled between February 2018 and October 2019.

small cell lung cancer [2] = test: Clinical study of anlotinib in combination with irinotecan in relapsed small cell lung cancer (Example 2); details: anlotinib hydrochloride capsule 12 mg qd po d1-14 in combination with irinotecan 60-80 mg/m^2 i.v. d1 and d8, q3w
Description: Patients who have been histopathologically and cytologically diagnosed with small cell lung cancer, have previously received 1 systemic chemotherapy adopting platinum-based chemotherapy regimens, and relapsed or failed after treatment, excluding patients with non-small cell lung cancer (including small cell and non-small cell mixed types), were divided into a combination administration group and a single-drug chemotherapy control group. The administration regimens are detailed below.
Combination administration group: anlotinib hydrochloride capsule 12 mg qd po d1-14 and irinotecan 60-80 mg/m^2 i.v. d1 and d8; q3w, no more than 6 chemotherapy dosing cycles.
Single-drug chemotherapy control group: irinotecan 60-80 mg/m^2 i.v. d1 and d8; q3w, no more than 6 chemotherapy dosing cycles.
Patients who achieved complete response (CR), partial response (PR), and stable disease (SD) continued to be administered until progressive disease (PD), intolerable toxicity, or patients who required withdrawal or achieved progressive disease (PD) were discontinued. The efficacy evaluation observation indexes include progression-free survival (PFS), overall survival (OS), objective response rate (ORR), disease control rate (DCR), duration of response (DOR), quality of life score and drug safety.

[3] = system: extensive-stage small cell lung cancer; test: Clinical study of anlotinib in combination with etoposide in extensive-stage small cell lung cancer after second-line failure (Example 3); details: anlotinib hydrochloride capsules 12 mg qd d1-14 in combination with etoposide soft capsules 100 mg qd d1-10, 21-day cycle
Experimental: Patients with extensive-stage small cell lung cancer after the pathological diagnosis of small cell lung cancer and failure with second-line chemotherapy (having received two previous chemotherapy regimens) were administered with anlotinib in combination with etoposide.
The administration regimens are detailed below.
Etoposide soft capsules: once daily, oral administration before breakfast, 100 mg (by weight of etoposide comprised therein) each time, administered at d1-10 of each 21-day dosing cycle.
Anlotinib hydrochloride capsules: once daily, oral administration before breakfast, 12 mg each time, administered at d1-14 of each 21-day dosing cycle.
The interval between the two drugs was more than half an hour. If there was a missed dose, the interval needed to be confirmed that it was not shorter than 12 hours before the next dose, otherwise no more doses would be taken. During the administration, dosage adjustments could be made according to the degree of drug-related toxicity and possible therapeutic benefit of the patient. The dose could be adjusted to the following 2 levels for anlotinib: 10 mg and 8 mg. If a reduction of more than 2 dose levels was required, the treatment was discontinued. The dose of etoposide could be reduced to 50 mg. […]

small cell lung cancer [4] = test: Clinical study of anlotinib in combination with sintilimab in relapsed small cell lung cancer (Example 5); details: anlotinib hydrochloride capsules 12 mg qd d1-14 in combination with sintilimab 200 mg i.v. d1, 21-day cycle
Experimental: Patients who have been histologically or cytologically confirmed pathologically diagnosed with small cell lung cancer, have previously received at least one systemic chemotherapy regimen and have relapsed were administered with anlotinib in combination with sintilimab. The administration regimens are detailed below.
Anlotinib hydrochloride capsules: once daily, oral administration before breakfast, 12 mg each time, administered at d1-14 of each 21-day dosing cycle, consecutive 2-week treatment and 1-week interruption.
Sintilimab: 200 mg, i.v. infusion, administered d1 of each 21-day dosing cycle.
All patients continued for a treatment period of up to 12 months, or until progressive disease, development of an intolerable toxic response, withdrawal of informed consent, death, or other event requiring discontinuation of treatment specified in the protocol, whichever occurred first.
The efficacy evaluation observation indexes include progression-free survival (PFS), overall survival (OS), objective response rate (ORR=CR+PR), disease control rate (DCR=CR+PR+SD) and drug safety.

[5] = anlotinib 12 mg/day in combination with EP or EC regimen, 31 patients
[6] = anlotinib 12 mg/day in combination with EP or EC regimen, of 31 patients
[7] = combination of anlotinib and EP or EC regimen

Structure (SMILES): COc1cc2c(Oc3ccc4[nH]c(C)cc4c3F)ccnc2cc1OCC1(N)CC1 [anlotinib, 1-[[[4-(4-fluoro-2-methyl-1H-indol-5-yl)oxy-6-methoxyquinolin-7-yl]oxy]methyl]cyclopropylamine]
- disease control rate (DCR) [1, 5]: 100%
- objective response rate (ORR) [1, 5]: 74.2%
- patients with complete response (CR) [1, 6]: 3 patients
- patients with partial response (PR) [1, 6]: 20 patients
- patients with progressive disease (PD) [1, 6]: 0 patients
- median PFS (progression-free survival) ([1]; anlotinib 12 mg/day po d1-14 q21d in combination with EP or EC regimen (etoposide + cisplatin/carboplatin), then anlotinib maintenance, 31 patients): 8.9 months
- clinical efficacy [1, 7]: good
- safety [1, 7]: good
- clinical benefits (small cell lung cancer [2]): had clinical benefits
- clinical benefits [3]: had clinical benefits
- clinical benefits (small cell lung cancer [4]): had clinical benefits
- progression-free survival to date (small cell lung cancer [4]): up to 6 months
